# Measured values: ChEMBL document CHEMBL5303766, “Data for DCP probe FHT-2344” (2022)
# Columns and labels:
# [1] = target: Cell division control protein 42 homolog (Homo sapiens) (UniProt P60953); test: CDC42 SGC Tm panel (DSF); conditions: for ΔTm: Compound concentration 10.0 uM
# [2] = target: Death-associated protein kinase 1 (Homo sapiens) (UniProt P53355); test: DAPK1 SGC Tm panel (DSF); conditions: for ΔTm: Compound concentration 10.0 uM
# [3] = target: Ephrin type-A receptor 7 (Homo sapiens) (UniProt Q15375); test: EPHA7 SGC Tm panel (DSF); conditions: for ΔTm: Compound concentration 10.0 uM
# [4] = target: T1, Ephrin type-B receptor 3 (Homo sapiens) (UniProt P54753); test: EPHB3 SGC Tm panel (DSF); conditions: for ΔTm: Compound concentration 10.0 uM
# T1 sequence (whole entry): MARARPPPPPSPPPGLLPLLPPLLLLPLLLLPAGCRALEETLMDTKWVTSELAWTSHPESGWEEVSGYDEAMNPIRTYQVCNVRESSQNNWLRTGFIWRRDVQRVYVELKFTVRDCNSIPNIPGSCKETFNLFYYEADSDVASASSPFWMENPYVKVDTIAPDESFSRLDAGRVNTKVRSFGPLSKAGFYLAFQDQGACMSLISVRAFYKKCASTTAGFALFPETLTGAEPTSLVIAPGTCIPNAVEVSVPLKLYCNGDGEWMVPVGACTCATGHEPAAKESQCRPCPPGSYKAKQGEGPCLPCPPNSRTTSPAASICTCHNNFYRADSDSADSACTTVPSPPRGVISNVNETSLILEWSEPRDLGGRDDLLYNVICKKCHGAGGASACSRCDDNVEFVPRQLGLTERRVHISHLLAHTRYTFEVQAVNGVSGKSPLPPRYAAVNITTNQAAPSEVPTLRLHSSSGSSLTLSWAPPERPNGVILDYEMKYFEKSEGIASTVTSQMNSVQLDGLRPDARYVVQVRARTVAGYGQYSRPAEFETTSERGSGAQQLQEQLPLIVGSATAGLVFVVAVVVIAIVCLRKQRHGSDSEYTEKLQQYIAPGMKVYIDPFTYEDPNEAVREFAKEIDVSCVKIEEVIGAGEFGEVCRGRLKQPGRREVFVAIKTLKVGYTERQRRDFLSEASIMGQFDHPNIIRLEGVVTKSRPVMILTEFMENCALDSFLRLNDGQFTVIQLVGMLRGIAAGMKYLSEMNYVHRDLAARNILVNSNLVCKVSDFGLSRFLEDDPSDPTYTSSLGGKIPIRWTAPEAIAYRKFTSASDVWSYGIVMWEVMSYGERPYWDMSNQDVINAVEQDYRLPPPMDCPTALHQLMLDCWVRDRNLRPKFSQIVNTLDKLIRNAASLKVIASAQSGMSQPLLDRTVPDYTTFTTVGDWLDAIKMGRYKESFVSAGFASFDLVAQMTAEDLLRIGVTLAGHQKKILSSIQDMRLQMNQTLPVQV
# [5] = target: Fibroblast growth factor receptor 2 (Homo sapiens) (UniProt P21802); test: FGFR2 SGC Tm panel (DSF); conditions: for ΔTm: Compound concentration 10.0 uM
# Sequence of Fibroblast growth factor receptor 2 (Homo sapiens) (P21802 22-821 limits assumed): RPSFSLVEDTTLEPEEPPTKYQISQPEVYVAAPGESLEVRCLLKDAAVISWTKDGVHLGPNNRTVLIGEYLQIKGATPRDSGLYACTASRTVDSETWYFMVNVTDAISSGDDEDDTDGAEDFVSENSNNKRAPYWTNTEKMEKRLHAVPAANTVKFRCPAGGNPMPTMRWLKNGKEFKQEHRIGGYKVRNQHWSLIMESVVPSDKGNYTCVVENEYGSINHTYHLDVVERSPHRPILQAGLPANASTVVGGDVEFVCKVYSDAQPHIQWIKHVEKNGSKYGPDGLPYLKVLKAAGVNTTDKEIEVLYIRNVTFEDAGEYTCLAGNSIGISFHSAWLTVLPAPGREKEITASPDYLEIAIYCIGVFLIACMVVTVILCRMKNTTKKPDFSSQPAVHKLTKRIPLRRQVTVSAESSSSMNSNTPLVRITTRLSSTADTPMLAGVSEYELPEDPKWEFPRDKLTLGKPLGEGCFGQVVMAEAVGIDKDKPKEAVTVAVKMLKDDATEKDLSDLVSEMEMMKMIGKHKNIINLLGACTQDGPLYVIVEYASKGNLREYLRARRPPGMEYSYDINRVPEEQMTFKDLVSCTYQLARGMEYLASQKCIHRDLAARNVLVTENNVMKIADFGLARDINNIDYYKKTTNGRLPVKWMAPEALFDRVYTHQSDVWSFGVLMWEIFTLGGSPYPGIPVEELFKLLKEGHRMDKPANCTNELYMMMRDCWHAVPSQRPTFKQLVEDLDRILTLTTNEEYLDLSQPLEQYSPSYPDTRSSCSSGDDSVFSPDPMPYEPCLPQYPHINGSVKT
# [6] = target: Mitogen-activated protein kinase 9 (Homo sapiens) (UniProt P45984); test: MAPK9 SGC Tm panel (DSF); conditions: for ΔTm: Compound concentration 10.0 uM
# Sequence of Mitogen-activated protein kinase 9 (Homo sapiens) (P45984 whole entry, looked up): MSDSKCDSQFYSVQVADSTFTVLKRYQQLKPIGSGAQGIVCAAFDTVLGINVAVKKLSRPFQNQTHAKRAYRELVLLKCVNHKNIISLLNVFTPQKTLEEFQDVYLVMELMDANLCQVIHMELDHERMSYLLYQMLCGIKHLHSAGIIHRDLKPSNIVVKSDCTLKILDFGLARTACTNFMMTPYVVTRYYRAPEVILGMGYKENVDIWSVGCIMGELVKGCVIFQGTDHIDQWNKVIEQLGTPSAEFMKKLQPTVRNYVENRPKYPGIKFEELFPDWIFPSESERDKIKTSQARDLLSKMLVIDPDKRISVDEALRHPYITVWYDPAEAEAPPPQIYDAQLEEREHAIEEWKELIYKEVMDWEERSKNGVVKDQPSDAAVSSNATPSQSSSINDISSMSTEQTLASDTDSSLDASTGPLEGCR
# [7] = target: Serine/threonine-protein kinase pim-3 (Homo sapiens) (UniProt Q86V86); test: PIM3 SGC Tm panel (DSF); conditions: for ΔTm: Compound concentration 10.0 uM
# [8] = target: T2, Serine/threonine-protein kinase Nek2 (Homo sapiens) (UniProt P51955); test: NEK2 SGC Tm panel (DSF); conditions: for ΔTm: Compound concentration 10.0 uM
# T2 sequence (whole entry): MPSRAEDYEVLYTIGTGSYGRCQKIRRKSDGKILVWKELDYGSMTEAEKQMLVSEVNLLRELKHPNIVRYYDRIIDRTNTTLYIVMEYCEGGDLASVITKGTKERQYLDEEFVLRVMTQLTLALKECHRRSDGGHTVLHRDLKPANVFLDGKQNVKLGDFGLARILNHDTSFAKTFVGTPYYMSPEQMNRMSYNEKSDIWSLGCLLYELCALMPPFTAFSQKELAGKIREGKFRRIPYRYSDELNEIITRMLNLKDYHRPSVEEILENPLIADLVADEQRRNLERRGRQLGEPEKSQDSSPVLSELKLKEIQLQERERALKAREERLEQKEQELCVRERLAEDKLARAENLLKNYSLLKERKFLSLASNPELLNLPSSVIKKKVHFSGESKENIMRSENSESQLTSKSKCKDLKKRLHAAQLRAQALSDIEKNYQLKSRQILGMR
# [9] = target: RAC-gamma serine/threonine-protein kinase (Homo sapiens) (UniProt Q9Y243); test: AKT3 SGC Tm panel (DSF); conditions: for ΔTm: Compound concentration 10.0 uM
# Sequence of RAC-gamma serine/threonine-protein kinase (Homo sapiens) (Q9Y243 whole entry): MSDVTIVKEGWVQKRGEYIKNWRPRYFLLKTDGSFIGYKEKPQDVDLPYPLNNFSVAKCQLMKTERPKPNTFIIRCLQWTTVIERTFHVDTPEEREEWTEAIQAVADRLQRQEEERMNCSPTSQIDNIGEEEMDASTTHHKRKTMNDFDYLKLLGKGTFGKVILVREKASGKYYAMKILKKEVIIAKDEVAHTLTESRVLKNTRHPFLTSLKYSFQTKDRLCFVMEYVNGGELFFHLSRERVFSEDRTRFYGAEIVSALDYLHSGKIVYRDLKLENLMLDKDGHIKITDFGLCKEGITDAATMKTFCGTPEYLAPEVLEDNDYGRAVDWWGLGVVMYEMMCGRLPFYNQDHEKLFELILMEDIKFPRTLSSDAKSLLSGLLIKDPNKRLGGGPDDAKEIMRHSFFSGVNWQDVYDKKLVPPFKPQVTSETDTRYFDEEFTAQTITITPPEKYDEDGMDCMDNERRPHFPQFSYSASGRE
# [10] = target: SRSF protein kinase 1 (Homo sapiens) (UniProt Q96SB4); test: SRPK1 SGC Tm panel (DSF); conditions: for ΔTm: Compound concentration 10.0 uM
# Sequence of SRSF protein kinase 1 (Homo sapiens) (Q96SB4 whole entry): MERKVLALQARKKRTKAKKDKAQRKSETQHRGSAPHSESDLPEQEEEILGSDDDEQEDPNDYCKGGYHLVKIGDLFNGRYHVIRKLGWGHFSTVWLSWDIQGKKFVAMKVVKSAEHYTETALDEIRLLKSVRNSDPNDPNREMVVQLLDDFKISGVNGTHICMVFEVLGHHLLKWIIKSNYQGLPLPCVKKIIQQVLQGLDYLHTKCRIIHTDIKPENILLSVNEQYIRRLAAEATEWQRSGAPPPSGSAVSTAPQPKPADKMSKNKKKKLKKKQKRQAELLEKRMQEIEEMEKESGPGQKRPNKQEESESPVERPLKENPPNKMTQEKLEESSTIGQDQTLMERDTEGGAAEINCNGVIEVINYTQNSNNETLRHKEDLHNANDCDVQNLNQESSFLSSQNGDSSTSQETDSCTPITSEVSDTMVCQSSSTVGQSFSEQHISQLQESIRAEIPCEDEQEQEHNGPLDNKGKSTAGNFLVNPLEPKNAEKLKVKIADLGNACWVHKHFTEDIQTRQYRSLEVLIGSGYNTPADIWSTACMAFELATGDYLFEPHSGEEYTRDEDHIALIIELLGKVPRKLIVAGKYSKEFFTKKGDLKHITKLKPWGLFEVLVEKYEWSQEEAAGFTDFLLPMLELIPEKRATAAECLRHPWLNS
# [11] = target: Transcription initiation factor TFIID subunit 1 (Homo sapiens) (UniProt P21675); test: TAF1 SGC Tm panel (DSF); conditions: for ΔTm: Compound concentration 10.0 uM
# [12] = target: Serine/threonine-protein kinase WNK1 (Homo sapiens) (UniProt Q9H4A3); test: WNK1 SGC Tm panel (DSF); conditions: for ΔTm: Compound concentration 10.0 uM
# [13] = target: Casein kinase I isoform epsilon (Homo sapiens) (UniProt P49674); test: CSNK1E SGC Tm panel (DSF); conditions: for ΔTm: Compound concentration 10.0 uM
# Sequence of Casein kinase I isoform epsilon (Homo sapiens) (P49674 whole entry, looked up, canonical isoform): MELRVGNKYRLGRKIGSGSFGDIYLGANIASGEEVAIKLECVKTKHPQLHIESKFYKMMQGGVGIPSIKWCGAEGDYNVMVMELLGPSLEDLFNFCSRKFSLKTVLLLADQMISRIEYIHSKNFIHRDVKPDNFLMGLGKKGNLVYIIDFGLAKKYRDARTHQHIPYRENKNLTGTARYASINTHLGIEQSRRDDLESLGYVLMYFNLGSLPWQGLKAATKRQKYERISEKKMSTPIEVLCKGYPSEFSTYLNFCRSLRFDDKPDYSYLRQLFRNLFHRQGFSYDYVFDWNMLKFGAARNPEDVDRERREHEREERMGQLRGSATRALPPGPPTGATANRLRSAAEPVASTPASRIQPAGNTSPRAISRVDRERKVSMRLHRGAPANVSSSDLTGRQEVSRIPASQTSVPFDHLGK
# [14] = target: Ephrin type-A receptor 4 (Homo sapiens) (UniProt P54764); test: EPHA4 SGC Tm panel (DSF); conditions: for ΔTm: Compound concentration 10.0 uM
# [15] = target: 5-hydroxytryptamine receptor 2C (Homo sapiens) (UniProt P28335); conditions: Compound concentration 10.0 uM
# [16] = target: 5-hydroxytryptamine receptor 6 (Homo sapiens) (UniProt P50406); conditions: Compound concentration 10.0 uM
# [17] = target: Delta-type opioid receptor (Homo sapiens) (UniProt P41143); conditions: Compound concentration 10.0 uM
# [18] = target: Muscarinic acetylcholine receptor M2 (Homo sapiens) (UniProt P08172); conditions: Compound concentration 10.0 uM
# [19] = target: Sigma non-opioid intracellular receptor 1 (Homo sapiens, UniProt Q99720); conditions: Compound concentration 10.0 uM
# Sequence of Sigma non-opioid intracellular receptor 1 (Q99720 whole entry): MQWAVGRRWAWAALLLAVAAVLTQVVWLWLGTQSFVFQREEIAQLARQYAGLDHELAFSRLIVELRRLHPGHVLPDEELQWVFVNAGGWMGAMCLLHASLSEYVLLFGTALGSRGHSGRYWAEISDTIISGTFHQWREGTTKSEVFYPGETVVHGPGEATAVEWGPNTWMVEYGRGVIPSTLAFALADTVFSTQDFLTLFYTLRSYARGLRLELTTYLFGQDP
# Sequence of Death-associated protein kinase 1 (Homo sapiens) (P53355 whole entry, looked up): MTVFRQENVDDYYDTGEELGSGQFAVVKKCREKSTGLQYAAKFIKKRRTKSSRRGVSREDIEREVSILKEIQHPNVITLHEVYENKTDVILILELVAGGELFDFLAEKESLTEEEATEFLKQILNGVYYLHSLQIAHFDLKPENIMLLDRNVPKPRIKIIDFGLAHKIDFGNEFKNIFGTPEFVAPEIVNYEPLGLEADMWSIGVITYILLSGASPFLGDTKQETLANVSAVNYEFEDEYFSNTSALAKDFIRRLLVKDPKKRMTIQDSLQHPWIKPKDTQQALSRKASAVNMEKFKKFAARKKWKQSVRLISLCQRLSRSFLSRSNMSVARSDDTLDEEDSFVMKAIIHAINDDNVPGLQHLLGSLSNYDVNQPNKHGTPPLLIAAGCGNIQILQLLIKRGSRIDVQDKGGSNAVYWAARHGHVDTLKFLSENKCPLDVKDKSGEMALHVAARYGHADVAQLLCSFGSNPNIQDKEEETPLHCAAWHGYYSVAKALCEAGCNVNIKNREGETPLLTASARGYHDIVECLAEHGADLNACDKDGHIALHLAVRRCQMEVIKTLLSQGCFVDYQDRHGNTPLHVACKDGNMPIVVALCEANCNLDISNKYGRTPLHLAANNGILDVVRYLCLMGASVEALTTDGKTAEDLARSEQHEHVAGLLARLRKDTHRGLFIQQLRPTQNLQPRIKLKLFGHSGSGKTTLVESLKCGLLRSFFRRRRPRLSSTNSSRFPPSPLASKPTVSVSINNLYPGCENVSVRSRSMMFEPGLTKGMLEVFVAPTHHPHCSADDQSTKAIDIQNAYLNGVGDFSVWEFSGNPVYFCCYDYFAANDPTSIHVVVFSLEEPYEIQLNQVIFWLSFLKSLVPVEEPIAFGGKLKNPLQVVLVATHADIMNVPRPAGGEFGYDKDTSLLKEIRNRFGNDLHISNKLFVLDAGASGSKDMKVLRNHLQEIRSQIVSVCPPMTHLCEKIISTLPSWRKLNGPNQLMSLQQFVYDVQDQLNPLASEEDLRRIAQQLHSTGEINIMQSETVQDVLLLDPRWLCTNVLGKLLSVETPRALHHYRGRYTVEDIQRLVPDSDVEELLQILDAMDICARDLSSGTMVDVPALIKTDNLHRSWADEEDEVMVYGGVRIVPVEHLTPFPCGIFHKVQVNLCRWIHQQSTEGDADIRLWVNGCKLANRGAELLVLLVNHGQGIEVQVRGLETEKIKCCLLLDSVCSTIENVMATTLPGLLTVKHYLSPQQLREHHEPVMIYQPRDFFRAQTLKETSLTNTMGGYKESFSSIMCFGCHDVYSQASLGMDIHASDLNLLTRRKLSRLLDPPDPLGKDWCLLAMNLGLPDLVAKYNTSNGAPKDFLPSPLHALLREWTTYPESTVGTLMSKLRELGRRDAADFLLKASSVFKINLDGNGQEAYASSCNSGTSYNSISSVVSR
# Sequence of Cell division control protein 42 homolog (Homo sapiens) (P60953 whole entry, looked up): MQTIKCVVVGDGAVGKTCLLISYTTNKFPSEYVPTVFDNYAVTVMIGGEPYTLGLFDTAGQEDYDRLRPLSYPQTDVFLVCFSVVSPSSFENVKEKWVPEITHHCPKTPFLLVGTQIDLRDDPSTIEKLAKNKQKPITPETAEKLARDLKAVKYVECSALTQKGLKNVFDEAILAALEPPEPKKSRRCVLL
Compound,delta Tm Staurosporine positive control [1],ΔTm [1],delta Tm Staurosporine positive control [2],ΔTm [2],delta Tm Staurosporine positive control [3],ΔTm [3],delta Tm Staurosporine positive control [4],ΔTm [4],delta Tm Staurosporine positive control [5],ΔTm [5],delta Tm Staurosporine positive control [6],ΔTm [6],delta Tm Staurosporine positive control [7],ΔTm [7],delta Tm Staurosporine positive control [8],ΔTm [8],delta Tm Staurosporine positive control [9],ΔTm [9],delta Tm Staurosporine positive control [10],ΔTm [10],other results
COC[C@H](NC(=O)c1ccn(S(C)(=O)=O)c1)C(=O)Nc1nc(-c2cccc(-c3ccn(C)n3)c2)cs1,2.78,0.57,9.19,-0.136,11.5,0.976,7.3,-0.288,8.53,0.294,3.96,0.244,17.6,0.116,3.7,0.182,7.03,0.0196,7.14,0.728,delta Tm Staurosporine positive control [11]: 0.177; ΔTm [11]: 0.0215; delta Tm Staurosporine positive control [12]: 0.638; ΔTm [12]: 0.232; delta Tm Staurosporine positive control [13]: 3.74; ΔTm [13]: 0.508; delta Tm Staurosporine positive control [14]: 6.89; ΔTm [14]: 1.06; inhibition [15]: 14.2%; inhibition [16]: 8.9%; inhibition [17]: 9.17%; inhibition [18]: 6.19%; inhibition [19]: 1.62%
C[C@H](NC(=O)c1cn(C2(C#N)CC2)cn1)C(=O)Nc1nc(-c2cccc(-c3ccn(C)n3)c2)cs1,2.78,-0.206,9.19,0.0306,11.5,1.13,7.3,-0.415,8.53,0.191,3.96,0.39,17.6,0.698,3.7,-0.146,7.03,0.193,7.14,0.0203,delta Tm Staurosporine positive control [11]: 0.177; ΔTm [11]: -0.179; delta Tm Staurosporine positive control [12]: 0.638; ΔTm [12]: 0.361; delta Tm Staurosporine positive control [13]: 3.74; ΔTm [13]: 0.73; delta Tm Staurosporine positive control [14]: 6.89; ΔTm [14]: 1.22; inhibition [15]: 18.3%; inhibition [16]: 16.4%; inhibition [17]: 12.4%; inhibition [18]: 16.3%; inhibition [19]: 83.2%
